What was measured:
[1] = Evaluation of conversion rate to active form in buffer solution (Experimental Example 1); assay type: physicochemical
Procedure: For Examples 1 to 16 and Comparative Examples 1 to 14, the attrition rate of the test compound and the conversion rate of the test compound to Alvocidib in a buffer solution were calculated by the following method.
Examples 1 to 16 and Comparative Examples 1 to 14 were each left in buffer solutions adjusted to pH 5.0, 5.5, 6.0, 6.5, 7.0 and 7.4, respectively, at a concentration of 25 umol/L at 37° C. After 0, 0.5, 1, 2 and 3 hours, the residual rates of the compounds of Examples […] and the production rate of Alvocidib were determined by HPLC.
The buffer solutions used at each pH are as follows. • pH 5.0: 50 mM citrate buffer solution (pH 5.0) • pH 5.5: 50 mM citrate buffer solution (pH 5.5) • pH 6.0: 50 mM phosphate buffer solution (pH 6.0) • pH 6.5: 50 mM phosphate buffer solution (pH 6.5) • pH 7.0: 50 mM phosphate buffer solution (pH 7.0) • pH 7.4: 50 mM phosphate buffer solution (pH 7.4)
(§1) The measurement conditions for HPLC are as follows.

[2] = Stability evaluation of solution formulation (Experimental Example 2); assay type: physicochemical; settings: for Production rate of Alvocidib / Residual rate: solution formulation
Procedure: For Example 1, Example 2, Example 5, Example 6, Comparative Example 13 and Comparative Example 14, the attrition rate of the test compound and the conversion rate of the test compound to Alvocidib in a solution formulation were calculated by the following method.
Example 1, Example 2, Example 5, Example 6, Comparative Example 13 and Comparative Example 14 were each added to buffer solutions adjusted to pH 3.0, 4.0 and 5.0, respectively, at a concentration of 0.1 mg/mL, and left at 5° C. After 0, 1, 2 and 4 weeks, the residual rates of the compounds of Example 1, Example 2, […], Comparative Example 13 and Comparative Example 14 and the production rate of Alvocidib were determined by HPLC.
The buffer solutions used at each pH are as follows. • pH 3.0: 5 mM tartrate buffer solution/10% sucrose solution (pH 3.0) • pH 4.0: 5 mM tartrate buffer solution/10% sucrose solution (pH 4.0) • pH 5.0: 5 mM tartrate buffer solution/10% sucrose solution (pH 5.0)
as §1
• column: Acquity UPLC BEH C18, 1.7 um, 50×2.1 mm • column temperature: 40° C. • mobile phase: • A: water containing 0.1% trifluoroacetic acid • B: acetonitrile • A/B (min): • 80/20(0)→75/25(3)→0/100(3.5)→0/100(4)→80/20(4.01)→80/20(5) • flow rate: 0.8 mL/min • detection: ultraviolet visible detector, measurement wavelength 254 nm • injection: 3 μL

SMILES: CNCCN(C)C(=O)Oc1cc(O)c2c(=O)cc(-c3ccccc3Cl)oc2c1[C@H]1CCN(C)C[C@H]1O [Comparative Example 14, reference compound]
- Production rate of Alvocidib ([1]; pH5.0, 0 hr): 1.2%
- Residual rate ([1]; pH5.0, 0 hr): 97.3%
- Stability in buffer solution at pH 5 ([1]; pH 5, 37° C., up to 2 or 3 hours): unstable
- Conversion to Alvocidib at pH 5 within 3 hours ([1]; pH 5, 37° C., within 3 hours): mostly converted to Alvocidib
- Production rate of Alvocidib ([1]; pH5.0, 0.5 hr): 17.9%
- Residual rate ([1]; pH5.0, 0.5 hr): 80.3%
- Production rate of Alvocidib ([1]; pH5.0, 1 hr): 31.1%
- Residual rate ([1]; pH5.0, 1 hr): 66.8%
- Production rate of Alvocidib ([1]; pH5.0, 2 hr): 53.7%
- Residual rate ([1]; pH5.0, 2 hr): 45.6%
- Production rate of Alvocidib ([1]; pH5.0, 3 hr): 68.5%
- Residual rate ([1]; pH5.0, 3 hr): 30.7%
- Production rate of Alvocidib ([1]; pH5.5, 0 hr): 1.4%
- Residual rate ([1]; pH5.5, 0 hr): 97.2%
- Production rate of Alvocidib ([1]; pH5.5, 0.5 hr): 44.2%
- Residual rate ([1]; pH5.5, 0.5 hr): 53.8%
- Production rate of Alvocidib ([1]; pH5.5, 1 hr): 67.2%
- Residual rate ([1]; pH5.5, 1 hr): 30.3%
- Production rate of Alvocidib ([1]; pH5.5, 2 hr): 88.5%
- Residual rate ([1]; pH5.5, 2 hr): 8.7%
- Production rate of Alvocidib ([1]; pH5.5, 3 hr): 93.9%
- Residual rate ([1]; pH5.5, 3 hr): 2.9%
- Production rate of Alvocidib ([1]; pH6.0, 0 hr): 1.9%
- Residual rate ([1]; pH6.0, 0 hr): 96.7%
- Production rate of Alvocidib ([1]; pH6.0, 0.5 hr): 88.1%
- Residual rate ([1]; pH6.0, 0.5 hr): 9.0%
- Production rate of Alvocidib ([1]; pH6.0, 1 hr): 95.7%
- Residual rate ([1]; pH6.0, 1 hr): 1.2%
- Production rate of Alvocidib ([1]; pH6.0, 2 hr): 97.0%
- Residual rate ([1]; pH6.0, 2 hr): 0.0%
- Production rate of Alvocidib ([1]; pH6.0, 3 hr): 97.1%
- Residual rate ([1]; pH6.0, 3 hr): 0.0%
- Production rate of Alvocidib ([1]; pH6.5, 0 hr): 3.2%
- Residual rate ([1]; pH6.5, 0 hr): 95.4%
- Production rate of Alvocidib ([1]; pH6.5, 0.5 hr): 97.0%
- Residual rate ([1]; pH6.5, 0.5 hr): 0.0%
- Production rate of Alvocidib ([1]; pH6.5, 1 hr): 96.7%
- Residual rate ([1]; pH6.5, 1 hr): 0.0%
- Production rate of Alvocidib ([1]; pH6.5, 2 hr): 98.2%
- Residual rate ([1]; pH6.5, 2 hr): 0.0%
- Production rate of Alvocidib ([1]; pH6.5, 3 hr): 97.6%
- Residual rate ([1]; pH6.5, 3 hr): 0.0%
- Production rate of Alvocidib ([1]; pH7.0, 0 hr): 6.9%
- Residual rate ([1]; pH7.0, 0 hr): 91.7%
- Production rate of Alvocidib ([1]; pH7.0, 0.5 hr): 96.8%
- Residual rate ([1]; pH7.0, 0.5 hr): 0.0%
- Production rate of Alvocidib ([1]; pH7.0, 1 hr): 96.8%
- Residual rate ([1]; pH7.0, 1 hr): 0.0%
- Production rate of Alvocidib ([1]; pH7.0, 2 hr): 96.7%
- Residual rate ([1]; pH7.0, 2 hr): 0.0%
- Production rate of Alvocidib ([1]; pH7.0, 3 hr): 96.7%
- Residual rate ([1]; pH7.0, 3 hr): 0.0%
- Production rate of Alvocidib ([1]; pH7.4, 0 hr): 14.2%
- Residual rate ([1]; pH7.4, 0 hr): 84.4%
- Production rate of Alvocidib ([1]; pH7.4, 0.5 hr): 97.3%
- Residual rate ([1]; pH7.4, 0.5 hr): 0.0%
- Production rate of Alvocidib ([1]; pH7.4, 1 hr): 97.2%
- Residual rate ([1]; pH7.4, 1 hr): 0.0%
- Production rate of Alvocidib ([1]; pH7.4, 2 hr): 97.2%
- Residual rate ([1]; pH7.4, 2 hr): 0.0%
- Production rate of Alvocidib ([1]; pH7.4, 3 hr): 97.2%
- Residual rate ([1]; pH7.4, 3 hr): 0.0%
- Stability / conversion to Alvocidib in solution formulation at pH 3 ([2]; pH 3, 5° C., up to 4 weeks): gradually converted to Alvocidib
- Conversion to Alvocidib in solution formulation at pH 5 after 4 weeks ([2]; pH 5, 5° C., after 4 weeks): almost completely converted to Alvocidib
- Production rate of Alvocidib ([2]; pH3.0, 0 week): 1.3%
- Residual rate ([2]; pH3.0, 0 week): 98.5%
- Production rate of Alvocidib ([2]; pH3.0, 1 week): 2.7%
- Residual rate ([2]; pH3.0, 1 week): 97.1%
- Production rate of Alvocidib ([2]; pH3.0, 2 week): 3.9%
- Residual rate ([2]; pH3.0, 2 week): 95.8%
- Production rate of Alvocidib ([2]; pH3.0, 4 week): 6.1%
- Residual rate ([2]; pH3.0, 4 week): 93.6%
- Production rate of Alvocidib ([2]; pH4.0, 0 week): 2.2%
- Residual rate ([2]; pH4.0, 0 week): 97.5%
- Production rate of Alvocidib ([2]; pH4.0, 1 week): 12.8%
- Residual rate ([2]; pH4.0, 1 week): 86.7%
- Production rate of Alvocidib ([2]; pH4.0, 2 week): 21.1%
- Residual rate ([2]; pH4.0, 2 week): 78.3%
- Production rate of Alvocidib ([2]; pH4.0, 4 week): 36.2%
- Residual rate ([2]; pH4.0, 4 week): 63.0%
- Production rate of Alvocidib ([2]; pH5.0, 0 week): 13.2%
- Residual rate ([2]; pH5.0, 0 week): 86.4%
- Production rate of Alvocidib ([2]; pH5.0, 1 week): 72.5%
- Residual rate ([2]; pH5.0, 1 week): 25.7%
- Production rate of Alvocidib ([2]; pH5.0, 2 week): 90.1%
- Residual rate ([2]; pH5.0, 2 week): 8.1%
- Production rate of Alvocidib ([2]; pH5.0, 4 week): 97.1%
- Residual rate ([2]; pH5.0, 4 week): 1.1%

Reference: patent publication US12617779B2, “Self degradation-type CDK9 inhibitor prodrug and liposome encapsulating same” (Sumitomo Pharma Co., Ltd., priority 2021, dated 2026)
